Converted amounts (≈) assume the structure as drawn. The source made the active and inactive calls. The calls are words filed in the database; no cut-off is given here.
Assays:
Escherichia coli [1] = assay: Antibacterial activity against Escherichia coli ATCC 35218 infected in Swiss albino mouse septicemia model assessed as log10 reduction in bacterial burden below stasis in blood at 20 mg/kg, iv administered twice every 2 hrs and measured after 5 hrs; format: functional
[2] = Aqueous solubility of compound at pH 4.6; format: physicochemical
Klebsiella pneumoniae [3] = assay: Antibacterial activity against Klebsiella pneumoniae ATCC 13883 assessed as inhibition of bacterial growth incubated for 18 hrs in presence of 2 mM CaCl2; format: functional, organism-based
[4] = Lipophilicity, logD of compound at pH 7.4; format: physicochemical; settings: buffer
Escherichia coli [5] = assay: Antibacterial activity against Escherichia coli ATCC 25922 harboring tolC knock-out assessed as inhibition of bacterial growth incubated for 18 hrs; format: functional; settings: read-out: MIC100
Escherichia coli [6] = assay: Antibacterial activity against Escherichia coli panel (100 strains) assessed as inhibition of bacterial growth; format: functional
Klebsiella pneumoniae [7] = assay: Antibacterial activity against Klebsiella pneumoniae ATCC 13883 assessed as inhibition of bacterial growth incubated for 18 hrs in presence of 150 mM NaCl; format: functional, organism-based
Proteus mirabilis [8] = assay: Antibacterial activity against Proteus mirabilis ATCC 25933 assessed as inhibition of bacterial growth incubated for 18 hrs; format: functional; settings: read-out: MIC100
Serratia marcescens = assay: Antibacterial activity against intrinsically colistin resistant Serratia marcescens ATCC 13880 assessed as inhibition of bacterial growth incubated for 18 hrs; format: functional; settings: read-out: MIC100
Klebsiella pneumoniae [9] = assay: Antibacterial activity against Klebsiella pneumoniae ATCC 13883 assessed as inhibition of bacterial growth incubated for 18 hrs in presence of 5 mM KCl; format: functional, organism-based
Klebsiella pneumoniae [10] = assay: Antibacterial activity against wild-type Klebsiella pneumoniae ATCC 13883 assessed as inhibition of bacterial growth incubated for 18 hrs in presence of 50% heat inactivated human serum; format: functional; settings: read-out: MIC100
Staphylococcus aureus = assay: Antibacterial activity against wild type Staphylococcus aureus USA300 assessed as inhibition of bacterial growth incubated for 18 hrs; format: functional; settings: read-out: MIC100
[11] = Toxicity in naive mouse assessed as animal death at >15 mg/kg, iv administered as single dose every 4 hrs for 24 hrs; format: organism-based; settings: in vivo
Lipopolysaccharide (LPS) = assay: Binding affinity to Pseudomonas aeruginosa LPS assessed as dissociation constant by ITC analysis; format: subcellular
Pseudomonas aeruginosa [12] = assay: Antibacterial activity against efflux-deficient Pseudomonas aeruginosa PAO750 assessed as inhibition of bacterial growth incubated for 18 hrs; format: functional; settings: read-out: MIC100
[13] = Cytotoxicity against human HepG2 cells incubated for 40 hrs by celltiter-glo luminescent cell viability assay; format: toxicity, cell-based
Klebsiella pneumoniae [14] = assay: Antibacterial activity against Klebsiella pneumoniae ATCC 43816 infected in mouse urinary tract infection model assessed as reduction in bacterial burden in urine at <10 mg/kg, iv administered every 4 hrs and measured after 26 hrs; format: functional, organism-based
[15] = AUClast in Swiss mouse liver at 10 mg/kg, iv administered as single bolus dose and measured upto 24 hrs by LC-MS/MS analysis; format: ADME, organism-based
[16] = Chemical stability of compound at pH 2; format: physicochemical; settings: buffer
Klebsiella pneumoniae [17] = assay: Antibacterial activity against Klebsiella pneumoniae panel (100 strains) assessed as inhibition of bacterial growth; format: functional
Klebsiella pneumoniae [18] = assay: Antibacterial activity against Klebsiella pneumoniae ATCC 43816 infected in cyclophosphamide immunosuppressed Swiss albino mouse respiratory infection model at 30 to 90 mg/kg, iv administered every 2 hrs starting from 1 hr post infection and measured 5 hrs post infection; format: functional, organism-based; settings: dose 30-90 mg/kg, time 4.0 hrs
Escherichia coli [19] = assay: Antibacterial activity against Escherichia coli ATCC 25922 assessed as inhibition of bacterial growth incubated for 18 hrs in presence of 5 mM KCl; format: functional, organism-based
[20] = Cmax in Swiss mouse liver at 10 mg/kg, iv administered as single bolus dose and measured upto 24 hrs by LC-MS/MS analysis; format: ADME, organism-based
Escherichia coli [21] = assay: Antibacterial activity against Escherichia coli ATCC BAA-2469 expressing NDM-1 assessed as inhibition of bacterial growth incubated for 18 hrs; format: functional; settings: read-out: MIC100
Escherichia coli [22] = assay: Antibacterial activity against Escherichia coli ATCC 35218 infected in Swiss albino mouse septicemia model at 10 to 30 mg/kg, iv administered twice every 2 hrs and measured after 5 hrs; format: functional, organism-based; settings: dose 10-30 mg/kg
Klebsiella aerogenes = assay: Antibacterial activity against Enterobacter aerogenes ATCC 13048 assessed as inhibition of bacterial growth incubated for 18 hrs; format: functional; settings: read-out: MIC100
[23] = Aqueous solubility of compound at pH 7.4; format: physicochemical
[24] = Cmax in Swiss mouse plasma at 10 mg/kg, iv administered as single bolus dose and measured upto 24 hrs by LC-MS/MS analysis; format: ADME, organism-based
Escherichia coli [25] = assay: Antibacterial activity against colistin resistant Escherichia coli NCTC 13846 harboring mcr-1 gene assessed as inhibition of bacterial growth incubated for 18 hrs; format: functional; settings: read-out: MIC100
Morganella morganii = assay: Antibacterial activity against Morganella morganii ATCC 25830 assessed as inhibition of bacterial growth incubated for 18 hrs; format: functional; settings: read-out: MIC100
[26] = Chemical stability of compound in glutathione; format: physicochemical
Proteus mirabilis [27] = assay: Antibacterial activity against Proteus mirabilis ATCC 7002 assessed as inhibition of bacterial growth incubated for 18 hrs; format: functional; settings: read-out: MIC100
Escherichia coli [28] = assay: Antibacterial activity against wild-type Escherichia coli ATCC 25922 assessed as inhibition of bacterial growth incubated for 18 hrs; format: functional; settings: read-out: MIC100
Escherichia coli [29] = assay: Antibacterial activity against Escherichia coli ATCC 25922 harboring hldE knock-out assessed as inhibition of bacterial growth incubated for 18 hrs; format: functional; settings: read-out: MIC100
[30] = Drug localization in cytoplasm of Escherichia coli ATCC 25922 at 10 uM incubated for 10 mins by LC-MS/MS analysis; format: ADME, subcellular
Cell membrane = assay: Induction of membrane permeabilization in Klebsiella pneumoniae ATCC 13883 at 32 to 64 ug/ml measured after 30 mins by Sytox Green labelling based microscopic analysis; format: cell membranes; settings: dose 32-64 µg/ml
[31] = Drug uptake in Escherichia coli ATCC 25922 at 10 uM incubated for 10 mins by LC-MS/MS analysis; format: ADME
Klebsiella pneumoniae [32] = assay: Antibacterial activity against wild-type Klebsiella pneumoniae ATCC 13883 assessed as inhibition of bacterial growth incubated for 18 hrs; format: functional; settings: read-out: MIC100
Pseudomonas aeruginosa [33] = assay: Antibacterial activity against wild-type Pseudomonas aeruginosa PAO1 assessed as inhibition of bacterial growth incubated for 24 hrs; format: functional; settings: read-out: MIC100
[34] = AUClast in Swiss mouse lung at 10 mg/kg, iv administered as single bolus dose and measured upto 24 hrs by LC-MS/MS analysis; format: ADME, organism-based

Structure (SMILES): CC[C@H](C)[C@@H](NC(=O)[C@@H](NC(=O)[C@H](CCC(=O)O)NC(=O)[C@H](Cc1ccccc1)NC(=O)[C@@H](CCN)NC(=O)[C@H](CCN)NC(=O)[C@H](CO)NC(=O)[C@@H](Cc1c[nH]c2ccccc12)NC(=O)[C@@H](CO)NC(=O)CNC(=O)[C@@H](CCN)NC(=O)[C@H](NC(=O)[C@H](C)N)C(C)C)C(C)C)C(=O)N[C@@H](C)C(=O)O
- log(activity) (Escherichia coli [1]): ~2
- solubility [2]: > 1000 µg/mL
- Activity (Klebsiella pneumoniae [3]): Active
- logD [4]: 1.36
- MIC (Escherichia coli [5]): 1 µg/mL (≈ 0.682 µM)
- MIC50 (Escherichia coli [6]): 4 µg/mL (≈ 2.73 µM)
- MIC90 (Escherichia coli [6]): 8 µg/mL (≈ 5.46 µM)
- Activity (Klebsiella pneumoniae [7]): Active
- MIC (Proteus mirabilis [8]): > 32 µg/mL
- MIC (Serratia marcescens): 8 µg/mL (≈ 5.46 µM)
- Activity (Klebsiella pneumoniae [9]): Active
- MIC (Klebsiella pneumoniae [10]): 1 µg/mL
- MIC (Staphylococcus aureus): > 32 µg/mL
- Activity [11]: Toxic
- Kd (Lipopolysaccharide (LPS)): 42.8 µM
- MIC (Pseudomonas aeruginosa [12]): 32 µg/mL (≈ 21.8 µM)
- IC50 at 40 h [13]: > 170 µg/mL
- Activity (Klebsiella pneumoniae [14]): inactive
- AUC(0-t) at 24 h [15]: 3020 ng·h/mL
- Stability [16]: Stable
- MIC50 (Klebsiella pneumoniae [17]): 8 µg/mL (≈ 5.46 µM)
- MIC90 (Klebsiella pneumoniae [17]): 32 µg/mL (≈ 21.8 µM)
- Activity (Klebsiella pneumoniae [18]): Active
- Activity (Escherichia coli [19]): Active
- Cmax [20]: 5.65 µg/mL
- MIC (Escherichia coli [21]): 8 µg/mL (≈ 5.46 µM)
- Activity (Escherichia coli [22]): Active
- MIC (Klebsiella aerogenes): 8 µg/mL (≈ 5.46 µM)
- solubility [23]: > 1000 µg/mL
- Cmax [24]: 166 µg/mL
- MIC (Escherichia coli [25]): 2 µg/mL (≈ 1.36 µM)
- MIC (Morganella morganii): > 32 µg/mL
- Stability [26]: Stable
- MIC (Proteus mirabilis [27]): > 64 µg/mL
- MIC (Escherichia coli [28]): 4 µg/mL (≈ 2.73 µM)
- MIC (Escherichia coli [29]): 4 µg/mL (≈ 2.73 µM)
- Drug uptake [30]: Active
- Activity (Cell membrane): Active
- Drug uptake [31]: Active
- MIC (Klebsiella pneumoniae [32]): 4 µg/mL (≈ 2.73 µM)
- MIC (Pseudomonas aeruginosa [33]): 64 µg/mL (≈ 43.7 µM)
- AUC(0-t) at 24 h [34]: 12100 ng·h/mL
